Test system: SARS-CoV-2
Type: cell-based
Conditions: result in words

| Substance | inhibition of SARS-CoV-2 proliferation in Vero-76 cells |
| --- | --- |
| A25: 5′-GGAGAATGACA(25)-3′, SEQ ID NO: 1: 10-nucleotide linker attached to 5′-end of a 25-mer poly(dA) sequence (DNA GGAGAATGACAAAAAAAAAAAAAAAAAAAAAAAAA; further chemistry not given here) | markedly inhibited |
| A25L: SEQ ID NO: 2: 10-nucleotide linker GGAGAATGAC sandwiched between two copies of a 25-mer poly(dA) sequence (DNA AAAAAAAAAAAAAAAAAAAAAAAAAGGAGAATGACAAAAAAAAAAAAAAAAAAAAAAAAA; further chemistry not given here) | markedly inhibited |
